By IC50 is commonly meant the midpoint of a concentration-inhibition curve. The term Ki denotes a measure of affinity in units of concentration, obtained from inhibition or displacement.

We go through four compounds from ChEMBL document CHEMBL5212743, “Selectivity Literature for EUbOPEN Chemogenomics Library wave 3” (2023).

The test system of assay [1] is Tyrosine-protein kinase ABL1 (Homo sapiens), P00519 [T315I]. As to the kind of experiment: Selectivity interaction (KinomeScan (DiscoverX)) EUB0000723a ABL1. Conditions: at 1 µM.
The target in assay [2] is T1, Aurora kinase C (Homo sapiens) (UniProt Q9UQB9).
T1 sequence (whole entry): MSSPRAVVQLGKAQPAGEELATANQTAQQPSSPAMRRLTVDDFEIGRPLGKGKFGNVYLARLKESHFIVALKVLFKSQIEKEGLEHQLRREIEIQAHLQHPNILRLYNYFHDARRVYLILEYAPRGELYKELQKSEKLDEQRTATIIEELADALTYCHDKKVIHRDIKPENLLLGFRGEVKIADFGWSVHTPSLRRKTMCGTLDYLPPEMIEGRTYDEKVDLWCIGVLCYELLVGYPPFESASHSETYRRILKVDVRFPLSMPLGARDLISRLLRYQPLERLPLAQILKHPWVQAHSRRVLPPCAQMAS
As to the kind of experiment: Selectivity interaction (KinomeScan (DiscoverX)) EUB0000723a AURKC. Conditions: at 1 µM.

Assay [3] addresses Tyrosine-protein kinase ABL1 (Homo sapiens, UniProt P00519). The experiment in a line: Selectivity interaction (NanoBRET assay (HEK293T cells)) EUB0000723a ABL1.
The target of a further assay is Aurora kinase C (Homo sapiens, UniProt Q9UQB9). The experiment in a line: Selectivity interaction (NanoBRET assay (HEK293T cells)) EUB0000723a AURKC. A general note: BRET reads energy transfer from a luciferase to a nearby fluorophore.
The test system of assay [4] is T2, Receptor-type tyrosine-protein kinase FLT3 (Homo sapiens), P36888 [D835Y].
T2 sequence (whole entry): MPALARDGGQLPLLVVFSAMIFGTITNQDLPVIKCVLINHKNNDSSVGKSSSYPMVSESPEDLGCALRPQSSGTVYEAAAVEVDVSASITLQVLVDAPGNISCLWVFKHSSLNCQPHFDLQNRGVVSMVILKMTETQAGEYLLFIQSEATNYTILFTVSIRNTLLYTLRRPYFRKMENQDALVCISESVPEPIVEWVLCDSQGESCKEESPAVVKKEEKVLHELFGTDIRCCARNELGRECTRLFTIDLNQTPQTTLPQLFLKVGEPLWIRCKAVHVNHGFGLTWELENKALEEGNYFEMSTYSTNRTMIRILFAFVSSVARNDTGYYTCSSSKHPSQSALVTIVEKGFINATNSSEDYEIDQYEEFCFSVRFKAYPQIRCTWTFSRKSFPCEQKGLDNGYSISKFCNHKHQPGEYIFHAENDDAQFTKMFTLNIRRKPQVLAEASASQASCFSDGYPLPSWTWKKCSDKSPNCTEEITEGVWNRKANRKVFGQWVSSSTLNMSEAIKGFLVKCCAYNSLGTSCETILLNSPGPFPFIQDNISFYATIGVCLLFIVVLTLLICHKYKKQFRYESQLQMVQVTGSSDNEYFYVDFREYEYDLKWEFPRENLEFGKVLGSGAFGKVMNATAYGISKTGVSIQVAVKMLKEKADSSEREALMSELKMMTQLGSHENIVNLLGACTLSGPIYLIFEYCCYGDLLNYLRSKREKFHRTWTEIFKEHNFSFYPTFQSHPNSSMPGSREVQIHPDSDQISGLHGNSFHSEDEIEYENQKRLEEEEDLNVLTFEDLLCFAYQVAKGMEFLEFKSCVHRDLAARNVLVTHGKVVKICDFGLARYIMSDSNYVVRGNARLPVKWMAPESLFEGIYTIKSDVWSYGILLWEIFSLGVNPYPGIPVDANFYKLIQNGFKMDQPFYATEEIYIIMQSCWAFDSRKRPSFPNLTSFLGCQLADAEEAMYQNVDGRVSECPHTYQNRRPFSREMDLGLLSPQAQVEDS
The experiment in a line: Selectivity interaction (KinomeScan (DiscoverX)) EUB0000747a FLT3. Conditions: at 1 µM.

Assay [5] addresses Death-associated protein kinase 2 (Homo sapiens) (UniProt Q9UIK4). As to the kind of experiment: Selectivity interaction (KinomeScan (DiscoverX)) EUB0000747a DAPK2. Conditions: at 1 µM.
Assay [6] concerns the target 5-hydroxytryptamine receptor 7 (Homo sapiens, UniProt P34969). As to the kind of experiment: Selectivity interaction (GPCR panel (PDSP screen)) EUB0000747a HTR7.
Assay [7] deals with Microtubule-associated serine/threonine-protein kinase 1 (Homo sapiens) (UniProt Q9Y2H9). The experiment in a line: Selectivity interaction (KinomeScan (DiscoverX)) EUB0000747a MAST1. Conditions: at 1 µM.
For the next assay, the target named is Acetylcholinesterase (Homo sapiens, UniProt P22303). As to the kind of experiment: Selectivity interaction (NIBR principial panel (12 GPCRs, 3 nuclear receptors, 3 transporters, and 7 other enzymes)) EUB0000254b ACHE.
Assay [8] concerns the target Prostaglandin G/H synthase 2 (Homo sapiens, UniProt P35354). The experiment in a line: Selectivity interaction (NIBR principial panel (12 GPCRs, 3 nuclear receptors, 3 transporters, and 7 other enzymes)) EUB0000254b PTGS2.
Another assay has as its target D(3) dopamine receptor (Homo sapiens, UniProt P35462). As to the kind of experiment: Selectivity interaction (NIBR principial panel (12 GPCRs, 3 nuclear receptors, 3 transporters, and 7 other enzymes)) EUB0000254b DRD3.
A further assay has as its target Histamine H1 receptor (Homo sapiens, UniProt P35367). The experiment in a line: Selectivity interaction (Receptor panel (Novartis) ) EUB0000164c HRH1.
The target of assay [9] is Muscarinic acetylcholine receptor M1 (Homo sapiens, UniProt P11229). As to the kind of experiment: Selectivity interaction (Receptor panel (Novartis) ) EUB0000164c CHRM1.
The target in assay [10] is Tyrosine-protein kinase BAZ1B (Homo sapiens) (UniProt Q9UIG0). As to the kind of experiment: Selectivity interaction (Bromodomain panel (DSF assay)) EUB0000164c BAZ1B. For orientation: Differential scanning fluorimetry follows unfolding on heating by fluorescence.
Chain of Tyrosine-protein kinase BAZ1B (Homo sapiens) (Q9UIG0 whole entry): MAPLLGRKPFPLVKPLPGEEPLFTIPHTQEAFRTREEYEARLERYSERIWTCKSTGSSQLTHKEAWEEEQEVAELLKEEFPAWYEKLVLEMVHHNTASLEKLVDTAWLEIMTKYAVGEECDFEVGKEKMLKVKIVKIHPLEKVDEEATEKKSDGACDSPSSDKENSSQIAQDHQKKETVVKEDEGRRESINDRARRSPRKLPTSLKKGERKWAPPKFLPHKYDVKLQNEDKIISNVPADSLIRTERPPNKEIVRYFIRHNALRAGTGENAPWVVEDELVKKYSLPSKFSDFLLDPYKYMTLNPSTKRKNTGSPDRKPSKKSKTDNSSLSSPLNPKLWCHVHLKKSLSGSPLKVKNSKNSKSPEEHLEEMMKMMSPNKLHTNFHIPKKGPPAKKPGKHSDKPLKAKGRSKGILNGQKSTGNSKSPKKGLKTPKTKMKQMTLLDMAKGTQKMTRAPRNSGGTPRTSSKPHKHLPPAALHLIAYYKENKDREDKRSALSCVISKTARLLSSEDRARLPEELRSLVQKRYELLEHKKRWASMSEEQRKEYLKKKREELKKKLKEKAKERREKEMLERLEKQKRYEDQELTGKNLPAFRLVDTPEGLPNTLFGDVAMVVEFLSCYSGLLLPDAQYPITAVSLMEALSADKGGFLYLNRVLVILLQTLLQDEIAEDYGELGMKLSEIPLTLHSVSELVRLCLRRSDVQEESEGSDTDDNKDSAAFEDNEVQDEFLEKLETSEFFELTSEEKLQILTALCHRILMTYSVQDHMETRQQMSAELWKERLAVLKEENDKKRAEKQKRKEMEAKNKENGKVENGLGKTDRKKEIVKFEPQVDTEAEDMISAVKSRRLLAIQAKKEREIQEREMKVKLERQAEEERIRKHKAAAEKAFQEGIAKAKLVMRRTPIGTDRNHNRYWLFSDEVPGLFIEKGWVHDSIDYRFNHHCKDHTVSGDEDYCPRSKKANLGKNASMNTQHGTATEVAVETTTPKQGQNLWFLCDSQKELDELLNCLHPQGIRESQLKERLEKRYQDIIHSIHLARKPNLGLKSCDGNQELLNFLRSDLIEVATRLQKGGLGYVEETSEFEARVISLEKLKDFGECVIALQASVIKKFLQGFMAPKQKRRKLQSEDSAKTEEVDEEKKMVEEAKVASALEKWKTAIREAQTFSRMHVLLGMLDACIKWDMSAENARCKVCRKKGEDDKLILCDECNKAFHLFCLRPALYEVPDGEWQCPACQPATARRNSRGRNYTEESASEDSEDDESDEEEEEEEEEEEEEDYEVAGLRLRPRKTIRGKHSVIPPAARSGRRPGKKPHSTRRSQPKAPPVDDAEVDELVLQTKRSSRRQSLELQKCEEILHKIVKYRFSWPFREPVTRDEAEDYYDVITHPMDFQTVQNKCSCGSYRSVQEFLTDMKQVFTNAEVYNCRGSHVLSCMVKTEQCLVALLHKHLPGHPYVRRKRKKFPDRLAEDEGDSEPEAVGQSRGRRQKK

Chain of Death-associated protein kinase 2 (Homo sapiens) (Q9UIK4 whole entry, looked up): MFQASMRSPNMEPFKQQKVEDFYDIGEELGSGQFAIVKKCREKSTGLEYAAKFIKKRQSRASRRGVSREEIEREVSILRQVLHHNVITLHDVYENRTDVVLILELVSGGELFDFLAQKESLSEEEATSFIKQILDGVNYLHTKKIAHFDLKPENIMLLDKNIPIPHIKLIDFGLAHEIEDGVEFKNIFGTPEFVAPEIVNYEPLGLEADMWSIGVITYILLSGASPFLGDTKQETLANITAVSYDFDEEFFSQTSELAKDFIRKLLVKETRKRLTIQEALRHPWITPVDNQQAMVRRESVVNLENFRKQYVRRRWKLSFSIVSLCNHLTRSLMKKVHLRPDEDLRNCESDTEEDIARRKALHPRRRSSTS
Chain of Acetylcholinesterase (P22303 whole entry): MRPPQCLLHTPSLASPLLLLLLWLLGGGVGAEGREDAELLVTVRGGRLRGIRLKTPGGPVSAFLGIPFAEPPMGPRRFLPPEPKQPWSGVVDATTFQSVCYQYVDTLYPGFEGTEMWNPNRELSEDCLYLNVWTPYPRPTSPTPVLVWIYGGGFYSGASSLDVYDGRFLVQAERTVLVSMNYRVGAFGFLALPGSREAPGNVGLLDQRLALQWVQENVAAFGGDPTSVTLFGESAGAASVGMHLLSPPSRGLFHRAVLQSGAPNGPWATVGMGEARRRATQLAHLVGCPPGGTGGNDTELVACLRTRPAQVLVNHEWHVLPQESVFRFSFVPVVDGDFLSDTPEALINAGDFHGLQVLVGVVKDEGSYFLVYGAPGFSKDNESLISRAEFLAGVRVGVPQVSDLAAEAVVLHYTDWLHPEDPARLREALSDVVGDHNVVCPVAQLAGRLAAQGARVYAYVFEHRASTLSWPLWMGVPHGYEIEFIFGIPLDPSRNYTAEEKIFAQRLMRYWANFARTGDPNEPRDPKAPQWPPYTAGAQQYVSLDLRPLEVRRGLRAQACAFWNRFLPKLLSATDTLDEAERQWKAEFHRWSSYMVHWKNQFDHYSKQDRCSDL
Chain of Prostaglandin G/H synthase 2 (P35354 whole entry): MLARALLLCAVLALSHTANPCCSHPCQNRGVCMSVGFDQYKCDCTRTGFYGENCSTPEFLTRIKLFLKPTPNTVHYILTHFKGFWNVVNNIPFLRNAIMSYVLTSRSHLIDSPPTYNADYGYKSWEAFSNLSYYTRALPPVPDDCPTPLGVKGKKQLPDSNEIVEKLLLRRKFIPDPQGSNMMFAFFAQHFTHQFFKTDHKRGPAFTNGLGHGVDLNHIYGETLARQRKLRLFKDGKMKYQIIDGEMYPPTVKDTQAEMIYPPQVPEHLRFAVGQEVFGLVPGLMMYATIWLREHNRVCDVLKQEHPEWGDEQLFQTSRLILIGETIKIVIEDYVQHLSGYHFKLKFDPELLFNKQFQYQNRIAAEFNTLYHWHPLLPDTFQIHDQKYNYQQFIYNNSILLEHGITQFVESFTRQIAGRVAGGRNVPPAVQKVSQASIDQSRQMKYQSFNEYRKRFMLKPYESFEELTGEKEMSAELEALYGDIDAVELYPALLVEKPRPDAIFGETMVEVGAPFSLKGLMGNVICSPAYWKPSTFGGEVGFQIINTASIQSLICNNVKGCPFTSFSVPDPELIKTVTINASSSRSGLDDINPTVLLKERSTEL
Chain of 5-hydroxytryptamine receptor 7 (P34969 whole entry): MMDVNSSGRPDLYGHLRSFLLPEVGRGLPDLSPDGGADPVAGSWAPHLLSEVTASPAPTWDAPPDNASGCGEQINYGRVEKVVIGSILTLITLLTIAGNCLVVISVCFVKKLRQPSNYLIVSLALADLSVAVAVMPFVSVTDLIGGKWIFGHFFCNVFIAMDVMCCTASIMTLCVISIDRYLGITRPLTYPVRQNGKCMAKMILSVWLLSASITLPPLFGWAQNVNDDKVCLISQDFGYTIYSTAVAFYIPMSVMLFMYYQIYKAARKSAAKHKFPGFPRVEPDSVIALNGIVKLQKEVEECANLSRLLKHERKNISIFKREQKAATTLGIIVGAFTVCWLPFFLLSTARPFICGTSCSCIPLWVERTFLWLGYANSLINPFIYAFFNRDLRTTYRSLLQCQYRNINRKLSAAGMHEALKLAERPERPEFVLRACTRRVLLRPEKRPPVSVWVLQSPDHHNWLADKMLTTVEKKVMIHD
Chain of Muscarinic acetylcholine receptor M1 (P11229 whole entry): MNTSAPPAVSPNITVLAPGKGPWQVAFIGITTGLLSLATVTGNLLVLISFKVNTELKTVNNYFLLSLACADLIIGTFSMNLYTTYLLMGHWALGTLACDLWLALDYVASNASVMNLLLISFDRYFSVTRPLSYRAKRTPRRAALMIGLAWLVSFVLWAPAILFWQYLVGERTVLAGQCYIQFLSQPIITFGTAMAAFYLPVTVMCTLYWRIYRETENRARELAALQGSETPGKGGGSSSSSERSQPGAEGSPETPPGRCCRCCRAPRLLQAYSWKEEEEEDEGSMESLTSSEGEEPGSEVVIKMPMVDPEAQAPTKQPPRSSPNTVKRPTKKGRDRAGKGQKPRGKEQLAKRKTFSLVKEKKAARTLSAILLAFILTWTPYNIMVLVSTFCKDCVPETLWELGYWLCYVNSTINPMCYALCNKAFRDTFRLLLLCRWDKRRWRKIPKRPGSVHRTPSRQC
Chain of D(3) dopamine receptor (P35462 whole entry): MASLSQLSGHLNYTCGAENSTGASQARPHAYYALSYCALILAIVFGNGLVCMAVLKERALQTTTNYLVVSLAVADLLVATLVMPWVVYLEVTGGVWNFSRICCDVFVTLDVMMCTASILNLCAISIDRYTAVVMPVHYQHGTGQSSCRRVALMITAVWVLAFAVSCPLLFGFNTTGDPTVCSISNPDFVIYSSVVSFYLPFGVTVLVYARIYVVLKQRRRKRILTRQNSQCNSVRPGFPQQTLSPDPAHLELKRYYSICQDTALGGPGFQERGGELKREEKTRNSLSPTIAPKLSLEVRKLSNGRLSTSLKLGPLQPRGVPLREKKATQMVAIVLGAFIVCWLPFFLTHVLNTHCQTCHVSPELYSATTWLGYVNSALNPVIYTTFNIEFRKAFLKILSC
Chain of Histamine H1 receptor (P35367 whole entry): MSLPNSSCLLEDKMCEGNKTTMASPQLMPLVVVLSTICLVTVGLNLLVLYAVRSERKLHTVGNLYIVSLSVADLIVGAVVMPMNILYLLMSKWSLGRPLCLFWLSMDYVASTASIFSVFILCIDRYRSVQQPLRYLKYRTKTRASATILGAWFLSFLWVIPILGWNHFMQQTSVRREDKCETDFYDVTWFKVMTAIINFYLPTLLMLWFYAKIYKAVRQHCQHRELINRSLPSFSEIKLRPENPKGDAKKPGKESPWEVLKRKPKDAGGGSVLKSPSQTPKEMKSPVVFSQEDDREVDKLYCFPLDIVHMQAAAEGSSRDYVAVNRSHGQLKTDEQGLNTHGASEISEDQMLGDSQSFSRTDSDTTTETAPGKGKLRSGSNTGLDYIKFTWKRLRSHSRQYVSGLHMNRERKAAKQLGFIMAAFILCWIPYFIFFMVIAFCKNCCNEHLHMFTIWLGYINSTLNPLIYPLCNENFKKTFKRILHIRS

In the case of `O=C(NCCCN1CCOC1=O)c1cnc(NCc2cc(Br)ccc2Br)nc1NC1CCCC1`, the % of control in [1] and in assay [2] was 100% each time. The IC50 (in assay [3]; on Aurora kinase C) was > 10 µM each time.

As to `CO[C@@H](C)c1c(Nc2ccc([C@@H](N(C)C(=O)C3CCS(=O)(=O)CC3)C(F)(F)F)cc2)cnc2cc(Cl)nn12` [NVS-MALT1-C], the figures for the % of control in assay [4], in assay [5] and in assay [7] were 42%, 41% and 29%, respectively. Also, in [6], the Ki was > 10 µM.

For `Cc1c(Nc2ccc(S(=O)(=O)N3CCN(C)CC3)cc2F)nc2ccc(Nc3cnn(C4CC4)c3)cn2c1=O`, the figures for the IC50 (at Acetylcholinesterase; in assay [8]; against D(3) dopamine receptor) were 5.5 µM, 0.8 µM and 0.95 µM, respectively.

As to `CC(C)NC(=O)N1CC[C@H](NC2=Nc3cc(F)ccc3N(CC(F)F)c3ccc(Cl)cc32)C1`, the concentration for half-maximal inhibition (IC50) (at Histamine H1 receptor; in assay [9]) was 13 µM throughout. The compound also gave a dTm in [10] of 0.7 K.
